Test results taken from patent US20250366503A1, “NOVEL GLUCOPYRANOSIDE COMPOSITIONS FOR SWEETNESS ENHANCEMENT” (International Flavors & Fragrances Inc., priority 2022, published 2025).

Experiment: Sweetness enhancement of sucrose by isolated compounds (flavor profile)
Conditions: for Flavor Profile: 6% sucrose in water; for Enhancement of the sweetness of sweetness modifiers: general statement; for Sweetness and sugary mouthfeel enhancement: summary statement
Procedure: A sucrose solution (6%) was prepared in water and used as the base solution. Sucrose solutions of lipedoside B-IIIb, ligurobustoside E, ligurobustoside C, CPD5, ligurobustoside K ligurobustoside I and CPD6 were each prepared at 0.1-2 ppm. Flavor profiles of the sucrose solutions with added lipedoside B-IIIb, ligurobustoside E, ligurobustoside C, CPD5, ligurobustoside K and CPD6 are reported in the following: […]

Molecule	Flavor Profile (compound 0.1 ppm)	Flavor Profile (compound 1 ppm)	Flavor Profile (compound 2 ppm)	Enhancement of the sweetness of sweetness modifiers	Sweetness and sugary mouthfeel enhancement
lipedoside B-IIIb	Slight sweetness enhancement, lingering sweetness	Sweetness enhancement, lingering sweetness	Strong upfront sweetness and sugary mouthfeel	enhance the sweetness of sweetness modifiers without undesirable off-notes	particularly strong sweetness and sugary mouthfeel enhancement
C=CC(C)(CCC=C(C)C)O[C@@H]1O[C@H](CO)[C@@H](OC(=O)/C=C/c2ccc(O)c(O)c2)[C@H](O[C@@H]2O[C@@H](C)[C@H](O)[C@@H](O)[C@H]2O)[C@H]1O (stereo partly drawn) [CPD5, (2R,3R,4R,5R,6S)-6-((3,7-dimethylocta-1,6-dien-3-yl)oxy)-5-hydroxy-2-(hydroxymethyl)-4-(((2S,3R,4R,5R,6S)-3,4,5-trihydroxy-6-methyltetrahydro-2H-pyran-2-yl)oxy)tetrahydro-2H-pyran-3-yl (E)-3-(3,4-dihydroxyphenyl)acrylate]			Moderate sweetness and mouthfeel enhancement	enhance the sweetness of sweetness modifiers without undesirable off-notes	
ligurobustoside K			Weak sweetness and mouthfeel enhancement		mild sweetness and sugary mouthfeel enhancement
CC(C)=CCC/C(C)=C/CO[C@@H]1O[C@H](COC(=O)/C=C/c2ccc(O)cc2)[C@@H](O)[C@H](O[C@@H]2O[C@@H](C)[C@H](O)[C@@H](O)[C@H]2O)[C@H]1O [Ligurobustoside E, ligurobustoside E]	Sweetness enhancement, lingering sweetness	Upfront sweetness, lingering sweetness		enhance the sweetness of sweetness modifiers without undesirable off-notes	particularly strong sweetness and sugary mouthfeel enhancement
CC(C)=CCC/C(C)=C/CO[C@@H]1O[C@H](CO)[C@@H](OC(=O)/C=C/c2ccc(O)cc2)[C@H](O[C@@H]2O[C@@H](C)[C@H](O)[C@@H](O)[C@H]2O)[C@H]1O [Ligurobustoside C, ligurobustoside C]			Some upfront sweetness and mouthfeel enhancement	enhance the sweetness of sweetness modifiers without undesirable off-notes	
CC(C)=CC(=O)/C=C(\C)CCO[C@@H]1O[C@H](CO)[C@@H](OC(=O)/C=C/c2ccc(O)cc2)[C@H](O[C@@H]2O[C@@H](C)[C@H](O)[C@@H](O)[C@H]2O)[C@H]1O [CPD6, (2R,3R,4R,5R,6R)-6-(((E)-3,7-dimethyl-5-oxoocta-3,6-dien-1-yl)oxy)-5-hydroxy-2-(hydroxymethyl)-4-(((2S,3R,4R,5R,6S)-3,4,5-trihydroxy-6-methyltetrahydro-2H-pyran-2-yl)oxy)tetrahydro-2H-pyran-3-yl (E)-3-(4-hydroxyphenyl)acrylate]			Weak lingering sweetness and mouthfeel enhancement		mild sweetness and sugary mouthfeel enhancement
C/C(=C\CO[C@@H]1O[C@H](CO)[C@@H](OC(=O)/C=C/c2ccc(O)cc2)[C@H](O[C@@H]2O[C@@H](C)[C@H](O)[C@@H](O)[C@H]2O)[C@H]1O)C/C=C\C(C)(C)O [ligurobustoside I]			Weak sweetness and mouthfeel enhancement		mild sweetness and sugary mouthfeel enhancement
